Data published in ChEMBL document CHEMBL1201862, “PubChem BioAssay data set” (2004).
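Compound exposure: 48 hours, 5 concentrations, 96-well plates. GI50 = concentration required for 50% inhibition of growth.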 Active and inactive are the calls of the source. No stated cut-off is given here; in the data, active = GI50 up to about 1.1 µM and inactive = higher.

What was measured:
Experiment in all cases: NCI tumour cell line growth inhibition, 48 h
[1] = system: SW-620
[2] = system: LOX IMVI
[3] = system: EKVX
[4] = system: OVCAR-3
[5] = system: HT-29
[6] = system: U-251
[7] = system: UACC-257
[8] = system: SNB-19
[9] = system: HL-60
[10] = system: OVCAR-4
[11] = system: IGROV-1
[12] = system: A549
[13] = system: HCT-116
[14] = system: SNB-75
[15] = system: OVCAR-8
[16] = system: SF-295
[17] = system: SK-MEL-2
[18] = system: MOLT-4

Measured: GI50

Cc1ccccc1C(C#N)C(=O)C(=O)Nc1nc([N+](=O)[O-])cs1 (configuration not stated)
inactive: [1] > 100 µM | [2] 40.2 µM | [3] > 100 µM | [4] > 100 µM | [5] > 100 µM | [6] > 100 µM | [7] > 100 µM | [8] > 100 µM | [9] 26.2 µM | [10] > 100 µM | [11] > 100 µM | [12] > 100 µM | [13] > 100 µM | [14] > 100 µM | [15] > 100 µM

O=C(NCc1ccccc1)c1cc2cc(O)c(O)cc2cn1
inactive: [16] 24.3 µM | [1] 42.6 µM | [2] 14.4 µM | [3] 41.3 µM | [4] 34.1 µM | [5] 26.7 µM | [6] 17.5 µM | [7] 26.9 µM | [8] 46.9 µM | [9] 13.5 µM | [17] 46.3 µM | [10] 25.5 µM | [11] 30.3 µM | [12] 29 µM | [13] 30.3 µM | [14] 23.8 µM | [15] 21.2 µM

O=C(O)CNS(=O)(=O)c1ccc(NC(=O)c2ccccc2[N+](=O)[O-])cc1
inactive: [1] > 100 µM | [2] > 100 µM | [3] > 100 µM | [5] > 100 µM | [6] > 100 µM | [7] > 100 µM | [8] > 100 µM | [9] > 100 µM | [17] > 100 µM | [10] > 100 µM | [11] > 100 µM | [12] > 100 µM | [14] > 100 µM | [15] > 100 µM | [18] > 100 µM

O=S1(=O)c2cc(S(=O)(=O)n3ccnc3)ccc2NC2=NCCCN21
inactive: [16] 29.4 µM | [1] 26.2 µM | [2] 38.5 µM | [3] > 100 µM | [4] 20.3 µM | [5] 20.3 µM | [6] 21.3 µM | [7] > 100 µM | [8] 78.5 µM | [9] 15.5 µM | [10] 47.4 µM | [11] 40.7 µM | [12] 34.2 µM | [13] 29.7 µM | [14] 26.7 µM | [15] 27.2 µM | [18] 40.7 µM

NC(=S)N/N=C1/CN(c2ccc(Cl)c(Cl)c2)CC(=O)C1c1nc2ccccc2s1 (configuration not stated)
inactive: [16] 46.9 µM | [1] > 100 µM | [2] 59.6 µM | [3] > 100 µM | [4] 67 µM | [5] 81.5 µM | [6] 67.1 µM | [7] 35.2 µM | [8] 56.8 µM | [9] 68.9 µM | [17] > 100 µM | [10] 92.7 µM | [11] > 100 µM | [12] > 100 µM | [13] 35.6 µM | [14] 28.5 µM | [15] 76.7 µM

CCN(CC)CCSc1c2ccccc2nc2c(OC)ccc(OC)c12
inactive: [16] 33.4 µM | [1] 2.08 µM | [2] 4.81 µM | [3] > 56.6 µM | [5] 4.59 µM | [6] 30.3 µM | [7] 3.78 µM | [8] 43.6 µM | [9] 1.73 µM | [10] 10.7 µM | [11] 6.32 µM | [12] 29.3 µM | [13] 3.04 µM | [14] > 49.7 µM | [15] 2.43 µM | [18] 1.65 µM

CCOC(=O)C1C2CCC(C2)C1(CCl)C(=O)OCC (configuration not stated)
inactive: [16] > 100 µM | [1] > 100 µM | [2] > 100 µM | [4] > 100 µM | [5] > 100 µM | [6] > 100 µM | [7] > 100 µM | [8] > 100 µM | [9] > 100 µM | [10] > 100 µM | [11] > 100 µM | [12] > 100 µM | [13] > 100 µM | [15] > 100 µM | [18] > 100 µM

O=C(O)C1(C(=O)O)CC1
inactive: [16] > 100 µM | [1] > 100 µM | [3] > 100 µM | [4] > 100 µM | [6] > 100 µM | [7] > 100 µM | [8] > 100 µM | [9] > 100 µM | [17] > 100 µM | [10] > 100 µM | [11] > 100 µM | [12] > 100 µM | [13] > 100 µM | [14] > 100 µM | [15] > 100 µM | [18] > 100 µM

CCc1ccccc1NC(=O)CCc1nnc(S)[nH]1
inactive: [16] > 100 µM | [1] > 100 µM | [2] > 100 µM | [4] > 100 µM | [5] > 100 µM | [6] > 100 µM | [7] > 100 µM | [8] > 100 µM | [9] > 100 µM | [17] > 100 µM | [10] > 100 µM | [11] > 100 µM | [12] > 100 µM | [13] > 100 µM | [14] > 100 µM | [15] > 100 µM | [18] > 100 µM

CS(=O)(=O)c1ccc(-c2cc(-c3ccc(S(C)(=O)=O)cc3)[n+](-c3cc(-c4ccc(S(C)(=O)=O)cc4)c([O-])c(-c4ccc(S(C)(=O)=O)cc4)c3)c(-c3ccc(S(C)(=O)=O)cc3)c2)cc1
inactive: [16] 91.8 µM | [1] > 100 µM | [2] > 100 µM | [4] > 100 µM | [5] > 100 µM | [6] > 100 µM | [7] 56.5 µM | [8] > 100 µM | [17] > 100 µM | [10] > 100 µM | [11] > 100 µM | [12] > 100 µM | [13] > 100 µM | [14] > 100 µM | [15] > 100 µM | [18] > 100 µM

CC1=C(C#N)C(=O)CC(c2ccc(Cl)cc2)N(C)N1 (configuration not stated)
inactive: [16] > 100 µM | [1] > 100 µM | [2] > 100 µM | [5] > 100 µM | [6] > 100 µM | [7] > 100 µM | [8] > 100 µM | [9] > 100 µM | [17] > 100 µM | [10] > 100 µM | [12] > 100 µM | [13] > 100 µM | [14] > 100 µM | [18] > 100 µM

N#CC(C#N)=C(C(C#N)C#N)C(C#N)C#N
inactive: [16] > 100 µM | [1] > 100 µM | [2] > 100 µM | [3] > 100 µM | [4] > 100 µM | [5] > 100 µM | [6] > 100 µM | [7] > 100 µM | [8] > 100 µM | [9] > 100 µM | [10] > 100 µM | [11] > 100 µM | [12] > 100 µM | [13] > 100 µM | [14] > 100 µM | [15] > 100 µM | [18] > 100 µM
